Key:
MMP-2 = target: T1, MMP-2 (Homo sapiens, UniProt P08253); experiment: Enzyme inhibition assay, fluorometric substrate degradation, MMP-2; assay type: biochemical; settings: purified human rMMP-2, fluorogenic substrate; read-out: Inhibition Potencies, IC50, MMP-2
T1 construct: Human rMMP-2 and -9 were purified in active forms; made in house
T1 sequence (P08253 110-660): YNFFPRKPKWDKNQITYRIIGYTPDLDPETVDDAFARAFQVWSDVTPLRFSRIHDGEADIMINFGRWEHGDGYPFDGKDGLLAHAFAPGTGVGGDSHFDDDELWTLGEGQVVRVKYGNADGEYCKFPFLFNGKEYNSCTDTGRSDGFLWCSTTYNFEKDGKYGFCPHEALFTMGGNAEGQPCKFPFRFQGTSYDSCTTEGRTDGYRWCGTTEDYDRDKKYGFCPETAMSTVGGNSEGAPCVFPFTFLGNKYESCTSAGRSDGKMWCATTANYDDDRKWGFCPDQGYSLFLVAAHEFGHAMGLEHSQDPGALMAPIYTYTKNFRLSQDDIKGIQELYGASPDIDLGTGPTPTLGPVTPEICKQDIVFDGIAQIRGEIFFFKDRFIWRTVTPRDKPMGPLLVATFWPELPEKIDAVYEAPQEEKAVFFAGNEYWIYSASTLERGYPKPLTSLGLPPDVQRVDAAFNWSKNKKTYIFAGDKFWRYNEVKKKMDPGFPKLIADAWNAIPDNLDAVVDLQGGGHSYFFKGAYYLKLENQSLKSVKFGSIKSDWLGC
Description: (§1) For kinetic studies, a standard fluorimetric assay based on hydrolysis of fluorogenic synthetic substrate (1 μM of McaPLGLDpaAR) was used. […] Both concentration and time-dependent cleavage were monitored. Controls included trypsin (non-specific cleavage) and bacterial collagenase (total cleavage) and other zinc-protease (ACE, endopeptidase). […] The IC50 values were converted to Ki values using the equation, Ki=IC50/(1+S/Km). […] Inhibition kinetics of various MMPs were also determined using substrate-degradation ELISA kits from Chemicon (Temecula, Calif.). See C.
(§2) Substrate specificity for MMP-1, -2, and -9 was assessed by degradation of labeled-collagen I and IV. […] Inhibitory potency and selectivity was also analyzed using a gelatin or collagen zymography followed by densitometric analysis. Labeled collagen I or IV degradation assay (zymography) was used for M-1, -2 and -9 activities and their inhibition. Bacterial collagenase and EDTA (10 mM) was included as positive and negative controls. In situ zymography film technique was also used for measurement of MMP-2 and MMP-9 (gelatinolytic) activities and their inhibition by drug treatment in target cells and tissue samples.

MMP-9 = target: T2, MMP-9 (Homo sapiens, UniProt P14780); experiment: Enzyme inhibition assay, fluorometric substrate degradation, MMP-9; assay type: biochemical; settings: purified human rMMP-9, fluorogenic substrate; read-out: Inhibition Potencies, IC50, MMP-9
T2 construct: Human rMMP-2 and -9 were purified in active forms; made in house
Description: as §1, §2

MMP-3 = target: T3, MMP-3 (Homo sapiens, UniProt P08254); experiment: Enzyme inhibition assay, fluorometric substrate degradation, MMP-3; assay type: biochemical; settings: Minienzyme used; read-out: Inhibition Potencies, IC50, MMP-3
T3 construct: purchased Chemicon
Description: (§3) Human rMMP-2 and -9 were purified in active forms, and purified MMP-1, -3 and -13 were obtained from commercial sources (Chemicon; Temecula, Calif.) in zymogen form and were activated by 1 mM APMA or PCMB treatment (2 hrs at 37° C.). For kinetic studies, a standard fluorimetric assay based on hydrolysis of fluorogenic synthetic substrate (1 μM of McaPLGLDpaAR) was used. For each assay, target MMP (1 μM) and increasing concentrations of test compound were incubated at 25° C. for 30-60 min and the rate of substrate hydrolysis was measured by Perkin-Elmer fluorometer at an excitation 328 nm and an emission 393 nm settings. Both concentration and time-dependent cleavage were monitored. Controls included trypsin (non-specific cleavage) and bacterial collagenase (total cleavage) and other zinc-protease (ACE, endopeptidase). IC50 values (the concentration at which 50% enzyme activity is inhibited) were determined by plots of % activity versus negative log of agent concentration. The IC50 values were converted to Ki values using the equation, Ki=IC50/(1+S/Km). The Km values (μM) were calculated from the […] values of 3-5 separate experiments. Inhibition kinetics of various MMPs were also determined using substrate-degradation ELISA kits from Chemicon (Temecula, Calif.). See C. Knight, et al., FEBS Lett., 1992, 296, 263-266; L. Windsor, et al., Biochem. Biophys. Acta […], 1334, 261-272, which are incorporated by reference herein for their teachings of enzyme inhibition assays.
MMP inhibitor selectivity determinations: Both quantitative labeled-substrate and FITC-biopeptide (matrix-specific) assays were used to examine the selective inhibition of MMP activities. Substrate specificity for MMP-1, -2, and -9 was assessed by degradation of labeled-collagen I and IV. Typically, MMP-dependent biomatrix degradation was monitored in the presence and absence of candidate compounds (0.5-500 μm) after 60-90 min incubations. Inhibitory potency and selectivity was also analyzed using a gelatin or collagen zymography followed by densitometric analysis. […]

Endopeptidase = experiment: Enzyme inhibition assay, endopeptidase (other zinc-protease control); assay type: biochemical; settings: for IC50: read-out: Inhibition Potencies, IC50, Endopeptidase
Description: as §3

[1] = system: nontumorigenic human fibroblasts cells (HF); experiment: Functional evaluation in Amgel models, nontumorigenic fibroblasts; assay type: cell-based
[2] = Cell proliferation and cell viability at the tested concentrations; assay type: cell-based; settings: at the tested concentrations (data not shown)
HT-1080R [3] = experiment: Amgel human tumor cell invasion bioassay, HT-1080R; assay type: cell-based; settings: 72 hours incubation at 50-100 μM
Description: (§4) Human tumor cell invasion bioassay: Amgel-coated filters (8 μm) were used as tissue biomatrix barriers placed between Lucite chambers. Labeled cells (50,000) were seeded onto reconstituted-Amgel filters (75 μg) and the lower chambers were filled with media containing 5% dialyzed serum. Test compounds (0.5-100 μM) were added and incubated for 72 hours. Contents from the lower chamber were collected to resolve cell-bound and free radioactivity. See G. Siegal, et al., Cancer Lett. 1993, 69, 123-132; L. Goodly, et al., Tumor Biology 1994, 15, 326-336; M. Ikeda, et al., Clin. Cancer. Res. 2000, 6, 3290-3296; R. Singh, et al., In Vitro Cell Develop. Biol., 2002, 38, 11.
(§5) Evaluation of the compounds 1c and 2c in Amgel human tumor invasion and angiogenesis models (72 hours incubation at 50-100 μM) was performed using two human HT-1080 cancer cell sublines (HT-1080-B and HT-1080-R). The results of these assays with compound 2c are shown in Table 2 and FIG. 1 (data for compound 1 c not shown).

HT-1080B [4] = experiment: Amgel human tumor cell invasion bioassay, HT-1080B; assay type: cell-based; settings: 72 hours incubation at 50-100 μM
Description: as §4, §5

HF [5] = experiment: Amgel human tumor cell invasion bioassay, HF; assay type: cell-based; settings: 72 hours incubation at 50-100 μM
HT-1080R [6] = experiment: Amgel human tumor angiogenesis bioassay, HT-1080R; assay type: cell-based; settings: 72 hours incubation at 50-100 μM
Description: (§6) Human tumor angiogenesis bioassay: Angiogenesis was induced by coculture of human endothelial cells (HUVECs) with tumor cells or defined angiogenic factor (FGF). Tumor cells media (from 24-hour serum-free cultures) were used to induce a biological angiogenic response using human glioma cell lines producing different concentrations of VEGF or by using purified factors such as 20 μM FGF. Endothelial cells were seeded onto Amgel-coated filters and induced with a angiogenic media+/−candidate MMP inhibitors. Varying concentrations of test compounds (0.5-500 μM) and incubation times (1-7 days) were applied, and endothelial cell differentiation (sprouting and tubule-like capillary formation) were examined by light microscopy and a computerized digital system.
as §5

HT-1080B [7] = experiment: Amgel human tumor angiogenesis bioassay, HT-1080B; assay type: cell-based; settings: 72 hours incubation at 50-100 μM
Description: as §6, §5

HF [8] = experiment: Amgel human tumor angiogenesis bioassay, HF; assay type: cell-based; settings: 72 hours incubation at 50-100 μM
Description: as §6, §5

T3 sequence (P08254 100-477, species assumed): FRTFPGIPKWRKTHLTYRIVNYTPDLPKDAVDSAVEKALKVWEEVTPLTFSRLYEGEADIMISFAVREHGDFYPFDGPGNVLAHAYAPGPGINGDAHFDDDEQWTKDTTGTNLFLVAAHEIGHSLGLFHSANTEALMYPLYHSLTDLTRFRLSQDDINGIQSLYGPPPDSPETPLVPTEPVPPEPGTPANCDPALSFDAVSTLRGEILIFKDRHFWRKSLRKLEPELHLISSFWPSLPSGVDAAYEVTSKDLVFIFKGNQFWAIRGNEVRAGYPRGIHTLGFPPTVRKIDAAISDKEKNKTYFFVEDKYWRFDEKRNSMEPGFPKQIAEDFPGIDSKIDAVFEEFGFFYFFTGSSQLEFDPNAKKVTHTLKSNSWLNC
T2 sequence (P14780 107-707 limits assumed): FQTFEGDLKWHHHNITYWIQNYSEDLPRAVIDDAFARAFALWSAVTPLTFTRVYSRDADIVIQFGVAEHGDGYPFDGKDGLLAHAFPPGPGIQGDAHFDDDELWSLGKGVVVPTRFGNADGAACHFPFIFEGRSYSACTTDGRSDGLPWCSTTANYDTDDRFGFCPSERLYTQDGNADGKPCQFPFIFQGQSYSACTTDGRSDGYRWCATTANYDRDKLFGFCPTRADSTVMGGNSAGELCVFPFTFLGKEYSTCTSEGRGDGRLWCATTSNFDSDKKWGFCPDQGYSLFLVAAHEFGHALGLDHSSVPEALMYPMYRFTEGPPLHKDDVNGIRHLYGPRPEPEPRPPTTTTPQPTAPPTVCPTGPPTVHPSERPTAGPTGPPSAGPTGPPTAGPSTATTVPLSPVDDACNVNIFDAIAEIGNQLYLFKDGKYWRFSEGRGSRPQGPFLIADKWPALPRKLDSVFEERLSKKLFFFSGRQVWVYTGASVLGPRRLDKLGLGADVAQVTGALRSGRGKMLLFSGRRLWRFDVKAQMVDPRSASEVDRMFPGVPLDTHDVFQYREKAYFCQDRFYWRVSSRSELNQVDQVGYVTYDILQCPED

IC50 (MMP-2)	IC50 (MMP-9)	IC50 (MMP-3)	IC50 (Endopeptidase)	melting point	Inhibition Potencies, IC50, Endopeptidase (Endopeptidase)	SMILES	effect on nontumorigenic human fibroblasts cells (HF) [1]	effect on cell proliferation [2]	effect on cell viability [2]	% Inhibition, Tumor invasion (HT-1080R [3])	% Inhibition, Tumor invasion (HT-1080B [4])	% Inhibition, Tumor invasion (HF [5])	% Inhibition, Tumor angiogenesis (HT-1080R [6])	% Inhibition, Tumor angiogenesis (HT-1080B [7])	% Inhibition, Tumor angiogenesis (HF [8])
150 nM	175 nM	> 3000 nM	> 20 µM	74 to 76 °C		O=C(NO)[C@@H]1CCCC[C@@H]1NS(=O)(=O)c1ccc(-c2ccccc2)cc1 (racemic) [compound 1c, (cis)-N-Hydroxy-2-[[(4-Biphenyl)sulfonyl]amino]cyclohexanecarboxamide]	neither compound 1c nor compound 2c had any effect	no effect	no effect						
125 nM	145 nM	> 3000 nM	> 20 µM	212 to 214 °C		O=C(NO)[C@@H]1CCCC[C@H]1NS(=O)(=O)c1ccc(-c2ccccc2)cc1 (racemic) [compound 2c, (trans)-N-Hydroxy-2-[[(4-Biphenyl)sulfonyl]amino]cyclohexanecarbox-amide]	neither compound 1c nor compound 2c had any effect	no effect	no effect	60 ± 5%	50 ± 8%	No effect	40 ± 6%	45 ± 4%	No effect
				182 to 184 °C		O=C(NO)[C@@H]1CCCC[C@H]1NS(=O)(=O)c1ccc(Oc2ccccc2)cc1 (relative stereo) [compound 2d, (trans)-N-Hydroxy-2-[(4-Phenoxybenzenesulfonyl)amino]cyclohexane-carboxamide]									
		80 nM			not detectable	CNC(=O)[C@H](Cc1c[nH]c2ccccc12)NC(=O)[C@@H](CC(=O)NO)CC(C)C [GM-6001, reference compound]									

Source: patent publication US8129406B2, “Nonpeptide inhibitors of matrix metalloproteinases” (Southern Research Institute, priority 2004, dated 2012)
